Data: ChEMBL document CHEMBL5215008, “Bioactive Arylnaphthalide Lignans from Justicia depauperata” (J Nat Prod, 2022)
pIC50: −log10 of the molar value. ≈ marks a conversion by molar mass, not a printed value.

Experiments:
[1] = Antioxidant activity assessed as inhibition of ABTS radical scavenging activity measured upto 6 mins; assay type: functional
[2] = system: Salmonella enterica; experiment: Antibacterial activity against Salmonella enterica NR13555 assessed as bacterial growth inhibition incubated overnight by broth microdilution assay; assay type: functional
[3] = system: KB 3-1; experiment: Cytotoxicity against human KB 3-1 cells assessed as reduction in cell viability; assay type: functional, cell-based
[4] = system: Pseudomonas aeruginosa; experiment: Antibacterial activity against Pseudomonas aeruginosa HM801 assessed as bacterial growth inhibition incubated overnight by broth microdilution assay; assay type: functional
[5] = system: Klebsiella pneumoniae; experiment: Antibacterial activity against Klebsiella pneumoniae clinical isolate assessed as bacterial growth inhibition incubated overnight by broth microdilution assay; assay type: functional
[6] = system: Klebsiella pneumoniae; experiment: Antibacterial activity against Klebsiella pneumoniae NR41388 assessed as bacterial growth inhibition incubated overnight by broth microdilution assay; assay type: functional
[7] = system: Salmonella typhi; experiment: Antibacterial activity against Salmonella enterica subsp. enterica serovar Typhi CPC assessed as bacterial growth inhibition incubated overnight by broth microdilution assay; assay type: functional
[8] = system: Staphylococcus aureus; experiment: Antibacterial activity against Staphylococcus aureus ATCC25923 assessed as bacterial growth inhibition incubated overnight by broth microdilution assay; assay type: functional
[9] = system: Staphylococcus aureus; experiment: Antibacterial activity against Staphylococcus aureus ATCC43300 assessed as bacterial growth inhibition incubated overnight by broth microdilution assay; assay type: functional

Molecule	pIC50 [1]	MIC [2]	pIC50 [3]	MIC [4]	MIC [5]	MIC [6]	MIC [7]	MIC [8]	MIC [9]
COC(=O)c1cc2ccc3c(c2c2c1C(=O)c1cc(O)c(O)cc1-2)OCO3	4.07	250 µg/mL (≈ 686 µM)	5.02						
COC1OC(=O)c2cc3ccc4c(c3c(-c3ccc(O)c(O)c3)c21)OCO4 (stereo not drawn)		62.5 µg/mL (≈ 171 µM)	5.39	31.3 µg/mL (≈ 85.4 µM)	62.5 µg/mL (≈ 171 µM)	62.5 µg/mL (≈ 171 µM)	31.3 µg/mL (≈ 85.4 µM)	62.5 µg/mL (≈ 171 µM)	62.5 µg/mL (≈ 171 µM)
COc1cc([C@@H](O)[C@@H]2CO[C@H](c3ccc(O)c(OC)c3)[C@H]2CO)ccc1O [TANEGOOL]	4.39	250 µg/mL (≈ 664 µM)		15.6 µg/mL (≈ 41.4 µM)	62.5 µg/mL (≈ 166 µM)	500 µg/mL (≈ 1330 µM)	31.3 µg/mL (≈ 83.2 µM)	500 µg/mL (≈ 1330 µM)	125 µg/mL (≈ 332 µM)
COc1ccc(C[C@H]2NC(=O)/C=C/C[C@@H]([C@H](C)[C@H]3O[C@@H]3c3ccccc3)OC(=O)[C@H](CC(C)C)OC(=O)C(C)(C)CNC2=O)cc1Cl [CRYPTOPHYCIN 52]			10.89						
Cc1c(C)c2c(c(C)c1O)CCC(C)(C(=O)O)O2 (stereo not drawn) [TROLOX]	4.17								
C=CCOC(=O)c1cc2ccc3c(c2c(-c2ccc4c(c2)OCO4)c1C=O)OCO3				125 µg/mL (≈ 309 µM)	500 µg/mL (≈ 1240 µM)		500 µg/mL (≈ 1240 µM)		500 µg/mL (≈ 1240 µM)
GENTAMICIN		0.07 µg/mL		0.05 µg/mL	0.03 µg/mL	0.07 µg/mL	0.05 µg/mL	0.03 µg/mL	0.07 µg/mL
CCCCOC1OC(=O)c2cc3ccc4c(c3c(-c3ccc5c(c3)OCO5)c21)OCO4 (stereo not drawn)				250 µg/mL (≈ 595 µM)	500 µg/mL (≈ 1190 µM)	500 µg/mL (≈ 1190 µM)	500 µg/mL (≈ 1190 µM)	500 µg/mL (≈ 1190 µM)	125 µg/mL (≈ 297 µM)
